Reference: article PMC12483202, “Pharmacokinetic profile of oral firocoxib in the koala (Phascolarctos cinereus)” (PLOS One, 2025)

Assay: Single oral dose (5 mg/kg) pharmacokinetics of firocoxib in koalas, plasma HPLC, non-compartmental analysis;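 also: healthy adult koalas, three per sex, anaesthetised the day before dosing for cephalic vein catheterisation, with serial blood draws and firocoxib in plasma quantified by HPLC using fluorescence detection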
Conditions: for Cmax / MRT inf / Tmax / Vd/F / k el / half-life / concentration at 2 h / concentration at 4 h / concentration at 8 h / concentration at 1 h / concentration at 0.25 h / concentration at 0.5 h / concentration at 12 h / concentration at 24 h / AUC(0-inf) / AUC(0-t): plasma, po, 5 mg/kg; for MRT inf: MRT0-inf; for Vd/F: Vz/F; for concentration at 2 h / concentration at 4 h / concentration at 8 h / concentration at 1 h / concentration at 0.25 h / concentration at 0.5 h / concentration at 12 h / concentration at 24 h: Firocoxib plasma concentration; for AUC(0-t): AUC0-t
[1] = female, K4 female, single oral 5 mg/kg
[2] = female, K5 female, single oral 5 mg/kg
[3] = female, arithmetic mean, female koalas (n = 3), single oral 5 mg/kg
[4] = female, harmonic mean, female koalas (n = 3), single oral 5 mg/kg
[5] = female, K6 female, single oral 5 mg/kg
[6] = harmonic mean, female koalas (n = 3), single oral 5 mg/kg
[7] = harmonic mean, male koalas (n = 3), single oral 5 mg/kg
[8] = harmonic mean, n = 6 koalas, single oral 5 mg/kg
[9] = male, koala (Phascolarctos cinereus), K1 male, single oral 5 mg/kg
[10] = male, koala (Phascolarctos cinereus), K2 male, single oral 5 mg/kg
[11] = male, koala (Phascolarctos cinereus), K3 male, single oral 5 mg/kg
[12] = male, koala, K1 male, single oral 5 mg/kg
[13] = male, koala, K2 male, single oral 5 mg/kg
[14] = male, koala, K3 male, single oral 5 mg/kg
[15] = male, K1 male, single oral 5 mg/kg
[16] = male, K2 male, single oral 5 mg/kg
[17] = male, K3 male, single oral 5 mg/kg
[18] = male, arithmetic mean, male koalas (n = 3), single oral 5 mg/kg
[19] = male, harmonic mean, male koalas (n = 3), single oral 5 mg/kg
[20] = median (range), n = 6 koalas, single oral 5 mg/kg

Source text: Six mature koalas (3 males, 3 females) with median (range) body weights and ages of 9.2 kg, (7.5 to 9.7 kg) and 4.8 years (4.3 to 9.1 years), respectively, were recruited from the Taronga Zoo colony (Mosman, NSW, Australia). These koalas were clinically normal based on regular physical examinations, haematological and biochemical analyte values. During the study, koalas were housed singly and supplied with various Eucalyptus spp. foliage and water ad-libitum. […] No animals were sacrificed; the animals were returned to the colony immediately after firocoxib administration and blood sampling. In order to minimise stress, intravenous catheterisation for sequential blood sampling was performed under general anaesthesia.
The day prior to drug administration and blood collection, the koalas were anaesthetised with alfaxalone (Alfaxan, Jurox, Pty Ltd, Rutherford, NSW, Australia) at 3 mg/kg administered intramuscularly (i.m.) and maintained under anaesthesia on isoflurane in 100% oxygen via a face mask for placement of a 20 gauge, 1 ¼ inch intravenous catheter into the cephalic vein. A short T-connector extension set (Codan, Santa Ana, CA, USA) and cap was attached to the catheter and flushed with saline. The extension tube, cap and catheter were secured with tape and bandage, for serial blood collection. Blood (5 mL) was collected at the time of anaesthesia in a lithium heparin tube to establish a baseline (t = 0 h).
Firocoxib was administered as a single oral dose of 5 mg/kg as crushed tablets made into a paste with Vetafarm Koala Crittacare (Wagga Wagga, NSW) and water.
Samples were centrifuged at 1500 x g for 10 minutes, within 1 h of collection; the plasma was immediately stored at –80 °C and protected from light until drug quantification. […] Clinical observations for the presence of adverse effects in the animals treated included measurement of vital signs, appetite, body weight, faecal consistency and overall behaviour and mobility.
Quantification of firocoxib and visualisation of metabolites in plasma was achieved by HPLC with fluorescence detection modified from a published method [12]. The HPLC system consisted of a Shimadzu LC-20AT solvent delivery unit, DGU-20A degasser, a SIL-20A HT auto injector, an SPD-20A UV detector and RF-10A XL fluorescence detector (Shimadzu, Rydalmere, NSW, Australia) and column oven (CTO-20A). […] Chromatographic separation was performed with a Supelco, Discovery C18, (25 cm x 4.6 mm, 5 µm) column (Merck KGaA, Darmstadt, Germany) with a 1-mm Opti-guard C18 pre-column (Choice Analytical, Thornleigh, NSW, Australia) at ambient temperature. […] Fluorescence detection excitation and emission wavelengths were 280 nm and 375 nm, respectively.
For sample preparation 200 μL of each of the following: plasma samples collected from koalas administered firocoxib, standards prepared for the standard curves and the QC samples; were extracted twice by mixing with 800 μL of ethyl acetate. The extracted organic portion (1.6 mL) was dried under vacuum in a Speed Vac Concentrator (Thermo Scientific, MA, USA) at 35 °C for 1 h, reconstituted with 100 μL of acetonitrile, and finally 10 μL of the reconstituted sample was injected into the HPLC system.
The concentration of each QC sample was repeated three times with the accuracy and precision calculated on each of the triplicates. The mean accuracy ± standard deviation (SD) were calculated using the formula [13]:
Firocoxib plasma concentrations from the initial oral administration underwent non-compartmental analysis. The peak concentration (Cmax) and the time reached (Tmax) were obtained directly from the measured concentrations. The elimination half-life (t1/2) was determined by ln2/ke where ke is the elimination rate constant which is the inverse slope of the elimination or terminal part of the semi-log curve.

Cmax (female, median value, female koalas, PO 5 mg/kg): 61.9 ng/mL
MRT inf [1]: 8.74 h
MRT inf [2]: 13.1 h
MRT inf [3]: 16.1 h
MRT inf [4]: 13.1 h
Tmax [1]: 4 h
Tmax [2]: 2 h
Tmax [5]: 4 h
Tmax [3]: 3.33 h
Tmax [4]: 3 h
Vd/F [1]: 202 L
Vd/F [2]: 616 L
Vd/F [5]: 2130 L
Vd/F [3]: 982 L
Vd/F [4]: 437 L
k el (female, ke (elimination constant), K4 female, single oral 5 mg/kg, slope from 8, 12, 24 h): 5.28e-05 s⁻¹
k el (female, ke (elimination constant), K5 female, single oral 5 mg/kg, slope from 8, 12, 24 h): 1.94e-05 s⁻¹
k el (female, ke (elimination constant), K6 female, single oral 5 mg/kg, slope from 8,12,24 h): 2.78e-05 s⁻¹
k el (female, ke, arithmetic mean, female koalas (n = 3), single oral 5 mg/kg): 3.33e-05 s⁻¹
k el (female, ke, harmonic mean, female koalas (n = 3), single oral 5 mg/kg): 2.78e-05 s⁻¹
half-life (female, t1/2 (elimination half-life), K4 female, single oral 5 mg/kg): 220 min
half-life (female, t1/2 (elimination half-life), K5 female, single oral 5 mg/kg): 595 min
half-life (female, t1/2 (elimination half-life), K6 female, single oral 5 mg/kg): 434 min
half-life (female, t1/2, arithmetic mean, female koalas (n = 3), single oral 5 mg/kg): 416 min
half-life (female, t1/2, harmonic mean, female koalas (n = 3), single oral 5 mg/kg): 352 min
half-life (female, t1/2, median value, female koalas, PO 5 mg/kg): 434 min
AUC 0-t/AUC0-inf [6]: 0.91
AUMC 0-inf [6]: 10875.3 ng/mL*h^2
Cl/F [6]: 52.0 L/h
ka [6]: 0.25 h⁻¹
AUC 0-t/AUC0-inf [7]: 0.88
AUMC 0-inf [7]: 16711.5 ng/mL*h^2
Cl/F [7]: 23.8 L/h
ka [7]: 0.16 h⁻¹
AUMC [8]: 13176.1 ng/mL*h ^ 2
Cl/F [8]: 32.6 L/h
ka [8]: 0.20 h⁻¹
concentration at 2 h [9]: 22.7 ng/mL
concentration at 4 h [9]: 68.3 ng/mL
concentration at 8 h [9]: 191 ng/mL
concentration at 2 h [10]: 39.2 ng/mL
concentration at 4 h [10]: 210 ng/mL
concentration at 8 h [10]: 118 ng/mL
concentration at 1 h [11]: 41.9 ng/mL
concentration at 2 h [11]: 105 ng/mL
concentration at 4 h [11]: 263 ng/mL
concentration at 8 h [11]: 128 ng/mL
concentration at 0.25 h [12]: 7.94 ng/mL
concentration at 0.5 h [12]: 4.51 ng/mL
concentration at 1 h [12]: 8.34 ng/mL
concentration at 12 h [12]: 101 ng/mL
concentration at 24 h [12]: 57.2 ng/mL
concentration at 0.25 h [13]: 4.37 ng/mL
concentration at 0.5 h [13]: 10 ng/mL
concentration at 1 h [13]: 21.7 ng/mL
concentration at 12 h [13]: 39.7 ng/mL
concentration at 24 h [13]: 4.13 ng/mL
concentration at 0.25 h [14]: 16.6 ng/mL
concentration at 0.5 h [14]: 52.5 ng/mL
concentration at 12 h [14]: 49.6 ng/mL
concentration at 24 h [14]: 3.86 ng/mL
AUC(0-inf) (male, AUC0-inf, K1 male, single oral 5 mg/kg): 3000 ng·h/mL
AUC(0-inf) (male, AUC0-inf, K2 male, single oral 5 mg/kg): 1540 ng·h/mL
AUC(0-inf) (male, AUC0-inf, K3 male, single oral 5 mg/kg): 1950 ng·h/mL
AUC(0-inf) (male, AUC 0-inf, arithmetic mean, male koalas (n = 3), single oral 5 mg/kg): 2160 ng·h/mL
AUC(0-inf) (male, AUC 0-inf, harmonic mean, male koalas (n = 3), single oral 5 mg/kg): 2010 ng·h/mL
AUC(0-t) [15]: 2160 ng·h/mL
AUC(0-t) [16]: 1520 ng·h/mL
AUC(0-t) [17]: 1930 ng·h/mL
AUC(0-t) [18]: 1870 ng·h/mL
AUC(0-t) [19]: 1830 ng·h/mL
Cmax [15]: 191 ng/mL
Cmax [16]: 210 ng/mL
Cmax [17]: 263 ng/mL
Cmax [18]: 221 ng/mL
Cmax [19]: 217 ng/mL
Cmax (male, median value, male koalas, PO 5 mg/kg): 210 ng/mL
MRT inf [15]: 19 h
MRT inf [16]: 7.13 h
MRT inf [17]: 6.88 h
MRT inf [18]: 11.1 h
MRT inf [19]: 9.01 h
Tmax [15]: 8 h
Tmax [16]: 4 h
Tmax [17]: 4 h
Tmax [18]: 5.33 h
Tmax [19]: 4.8 h
Vd/F [15]: 277 L
Vd/F [16]: 152 L
Vd/F [17]: 113 L
Vd/F [18]: 181 L
Vd/F [19]: 158 L
k el (male, ke (elimination constant), K1 male, single oral 5 mg/kg, slope from 12, 24 h): 1.39e-05 s⁻¹
k el (male, ke (elimination constant), K2 male, single oral 5 mg/kg, slope from 4, 8, 12 h): 5.83e-05 s⁻¹
k el (male, ke (elimination constant), K3 male, single oral 5 mg/kg, slope from 4, 8, 12 h): 6.11e-05 s⁻¹
k el (male, ke, arithmetic mean, male koalas (n = 3), single oral 5 mg/kg): 4.44e-05 s⁻¹
k el (male, ke, harmonic mean, male koalas (n = 3), single oral 5 mg/kg): 2.78e-05 s⁻¹
half-life (male, t1/2 (elimination half-life), K1 male, single oral 5 mg/kg): 882 min
half-life (male, t1/2 (elimination half-life), K2 male, single oral 5 mg/kg): 199 min
half-life (male, t1/2 (elimination half-life), K3 male, single oral 5 mg/kg): 191 min
half-life (male, t1/2, arithmetic mean, male koalas (n = 3), single oral 5 mg/kg): 424 min
half-life (male, t1/2, harmonic mean, male koalas (n = 3), single oral 5 mg/kg): 263 min
half-life (male, t1/2, median value, male koalas, PO 5 mg/kg): 199 min
AUMC [20]: 12429.4 (8500.1–56998.2) ng/mL*h ^ 2
Cl/F [20]: 34.5 (19.0-87.5) L/h
ka [20]: 0.23 (0.11-0.43) 1/h
time after which firocoxib could be detected in the plasma of all koalas (single oral 5 mg/kg): 15 min
Compound: CC1(C)OC(=O)C(OCC2CC2)=C1c1ccc(S(C)(=O)=O)cc1 [firocoxib]
